According to patent publication US5279811A, “Ester-substituted diaminedithiols and radiolabeled complexes thereof” (The Du Pont Merck Pharmaceutical Company, priority 1988, dated 1994):

Assay: solubility
Type: physicochemical
Details: all solvents except aqueous base

With O=C(O)C(CS)NCCNC(CS)C(=O)O [N,N'-1,2-ethylenediylbis-L-cysteine] as the compound, how does the solubility read?
The solubility was “insoluble in all solvents except aqueous base”.
